# Values quoted from earlier work as cited in patent US20200397756A1, “A STABLE PHARMACEUTICAL COMPOSITION OF POORLY SOLUBLE NONSTEROIDAL ANTIANDROGENS” (KASHIV BIOSCIENCES, LLC, priority 2018, published 2020).
# Tests used:
# [1] = water between pH 1 to 11
# [2] = not given; remark: listed apart in the source
Structure (SMILES),solubility in water [1],permeability,solubility in absolute ethanol [2]
"CNC(=O)c1ccc(N2C(=S)N(c3ccc(C#N)c(C(F)(F)F)c3)C(=O)C2(C)C)cc1F [Enzalutamide, 4-{3-[4-cyano-3-(trifluoromethyl)phenyl]-5,5-dimethyl-4-oxo-2-sulfanylideneimidazolidin-1-yl}-2-fluoro-N-methylbenzamide]",practically insoluble,high,sparingly soluble
"CNC(=O)c1ccc(N2C(=S)N(c3cnc(C#N)c(C(F)(F)F)c3)C(=O)C23CCC3)cc1F [apalutamide, 4-(7-(6-Cyano-5-(trifluoromethyl)pyridin-3-yl)-8-oxo-6-thioxo-5,7-diazaspiro(3.4)octan-5-yl)-2-fluoro-N-methylbenzamide]",practically insoluble,high,sparingly soluble
